“And” between values parts separate entries of the source, which are not always exact repeats. Equal entries are not always repeated.
Legend:
Type in all cases: biochemical
Lck = target: T1, Lck (Homo sapiens, UniProt P06239); assay: Kinase inhibition assay (33P transfer), Lck; conditions: Table 3, class symbols; read-out: Lck-1
T1 construct: Kinases are expressed as either kinase domains or full length constructs; made in house
In short: (§1)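 Kinase domain or full-length constructs, GST- or polyHis-tagged, expressed in E. coli or baculovirus-High Five cells, sometimes with regulatory polypeptides. Activity measured as 33PO4 transfer from ATP to plate-bound poly(Glu,Tyr) 4:1 or poly(Arg,Ser) 3:1; after incubation, plates washed with 0.5% phosphoric acid and counted by liquid scintillation.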

EGFR = target: T2, EGFR (Homo sapiens, UniProt P00533); assay: Kinase inhibition assay (33P transfer), EGFR; conditions: Table 2, class symbols A-E; read-out: EGFR-1
T2 construct: Kinases are expressed as either kinase domains or full length constructs; made in house
T2 sequence (P00533 25-1210, species assumed): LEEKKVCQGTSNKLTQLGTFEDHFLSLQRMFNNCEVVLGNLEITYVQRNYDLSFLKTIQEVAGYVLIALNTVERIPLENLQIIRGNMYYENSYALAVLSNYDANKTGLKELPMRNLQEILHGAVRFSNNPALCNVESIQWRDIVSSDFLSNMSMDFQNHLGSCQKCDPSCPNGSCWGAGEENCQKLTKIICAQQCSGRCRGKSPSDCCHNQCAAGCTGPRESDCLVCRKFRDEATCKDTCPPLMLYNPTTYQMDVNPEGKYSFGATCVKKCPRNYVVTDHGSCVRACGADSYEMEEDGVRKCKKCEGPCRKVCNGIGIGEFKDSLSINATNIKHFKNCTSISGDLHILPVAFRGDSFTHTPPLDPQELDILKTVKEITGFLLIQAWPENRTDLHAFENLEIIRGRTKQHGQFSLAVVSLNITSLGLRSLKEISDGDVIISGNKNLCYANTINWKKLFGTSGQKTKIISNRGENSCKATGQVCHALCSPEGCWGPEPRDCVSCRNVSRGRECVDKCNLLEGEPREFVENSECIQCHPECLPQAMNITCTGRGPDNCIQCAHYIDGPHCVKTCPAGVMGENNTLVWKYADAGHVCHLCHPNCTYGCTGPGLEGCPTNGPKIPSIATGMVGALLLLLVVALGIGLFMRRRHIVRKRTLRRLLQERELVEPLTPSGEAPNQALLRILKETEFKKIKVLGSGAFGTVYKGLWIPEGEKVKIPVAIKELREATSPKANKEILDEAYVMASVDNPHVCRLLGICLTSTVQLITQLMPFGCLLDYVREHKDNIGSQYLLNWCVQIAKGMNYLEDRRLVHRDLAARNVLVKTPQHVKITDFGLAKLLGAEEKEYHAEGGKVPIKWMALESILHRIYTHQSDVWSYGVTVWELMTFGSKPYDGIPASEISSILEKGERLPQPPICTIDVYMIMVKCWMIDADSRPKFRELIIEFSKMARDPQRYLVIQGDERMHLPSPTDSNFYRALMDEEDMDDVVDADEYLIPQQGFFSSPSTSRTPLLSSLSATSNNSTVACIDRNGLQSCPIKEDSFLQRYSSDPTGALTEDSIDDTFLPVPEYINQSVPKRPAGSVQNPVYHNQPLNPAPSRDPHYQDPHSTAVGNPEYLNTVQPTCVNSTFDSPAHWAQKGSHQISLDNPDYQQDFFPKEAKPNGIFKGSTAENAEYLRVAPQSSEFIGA
In short: (§2)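 Recombinant kinase domains or full-length GST- or His-tagged constructs, from E. coli or baculovirus/High Five cells, sometimes with regulatory polypeptides. Transfer of 33P from ATP to plate-bound poly(Glu,Tyr) 4:1 or poly(Arg,Ser) 3:1 counted by liquid scintillation after phosphoric acid wash; IC50 is the concentration halving incorporation.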

ErbB2 = target: T3, ErbB2 (Homo sapiens, UniProt P04626); assay: Kinase inhibition assay (33P transfer), ErbB2; conditions: read-out: ErbB2-2
T3 construct: Kinases are expressed as either kinase domains or full length constructs; made in house
T3 sequence (P04626 23-1255, species assumed): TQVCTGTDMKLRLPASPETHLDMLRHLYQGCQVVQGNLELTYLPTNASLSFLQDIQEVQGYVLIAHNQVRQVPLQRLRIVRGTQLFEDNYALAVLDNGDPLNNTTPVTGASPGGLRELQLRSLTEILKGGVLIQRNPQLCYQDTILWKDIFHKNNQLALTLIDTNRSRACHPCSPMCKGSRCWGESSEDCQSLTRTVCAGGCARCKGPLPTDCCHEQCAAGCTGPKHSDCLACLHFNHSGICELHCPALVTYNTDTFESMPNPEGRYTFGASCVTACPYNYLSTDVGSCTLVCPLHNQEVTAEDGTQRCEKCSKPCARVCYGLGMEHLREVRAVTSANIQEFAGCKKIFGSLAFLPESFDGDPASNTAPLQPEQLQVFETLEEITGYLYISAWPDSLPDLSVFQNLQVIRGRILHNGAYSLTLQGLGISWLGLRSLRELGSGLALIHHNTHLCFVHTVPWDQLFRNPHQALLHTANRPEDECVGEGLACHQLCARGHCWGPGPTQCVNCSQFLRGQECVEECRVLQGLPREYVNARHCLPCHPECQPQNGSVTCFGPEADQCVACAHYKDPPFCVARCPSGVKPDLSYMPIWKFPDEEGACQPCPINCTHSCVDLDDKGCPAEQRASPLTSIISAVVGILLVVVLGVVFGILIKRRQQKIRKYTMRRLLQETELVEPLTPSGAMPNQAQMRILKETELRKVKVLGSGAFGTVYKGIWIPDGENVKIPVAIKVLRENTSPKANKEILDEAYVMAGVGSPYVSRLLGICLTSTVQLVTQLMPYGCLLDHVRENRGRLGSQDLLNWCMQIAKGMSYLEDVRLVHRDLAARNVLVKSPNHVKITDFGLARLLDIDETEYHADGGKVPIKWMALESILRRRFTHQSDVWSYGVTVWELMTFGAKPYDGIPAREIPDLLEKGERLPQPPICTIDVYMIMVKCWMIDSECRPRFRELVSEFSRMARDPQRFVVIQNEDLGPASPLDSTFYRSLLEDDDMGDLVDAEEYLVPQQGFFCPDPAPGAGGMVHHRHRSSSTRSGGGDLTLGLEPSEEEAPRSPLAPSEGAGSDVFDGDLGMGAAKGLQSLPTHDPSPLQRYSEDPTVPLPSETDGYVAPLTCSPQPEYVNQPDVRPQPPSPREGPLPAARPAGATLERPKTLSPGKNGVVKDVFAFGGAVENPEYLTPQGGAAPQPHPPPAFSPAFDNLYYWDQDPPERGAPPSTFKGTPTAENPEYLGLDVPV
In short: as §2

IGFR-1 = target: T4, IGFR-1 (Homo sapiens, UniProt P08069); assay: Kinase inhibition assay (33P transfer), IGFR-1; conditions: Table 2, class symbols A-E
T4 construct: Kinases are expressed as either kinase domains or full length constructs; made in house
T4 sequence (P08069 31-1367): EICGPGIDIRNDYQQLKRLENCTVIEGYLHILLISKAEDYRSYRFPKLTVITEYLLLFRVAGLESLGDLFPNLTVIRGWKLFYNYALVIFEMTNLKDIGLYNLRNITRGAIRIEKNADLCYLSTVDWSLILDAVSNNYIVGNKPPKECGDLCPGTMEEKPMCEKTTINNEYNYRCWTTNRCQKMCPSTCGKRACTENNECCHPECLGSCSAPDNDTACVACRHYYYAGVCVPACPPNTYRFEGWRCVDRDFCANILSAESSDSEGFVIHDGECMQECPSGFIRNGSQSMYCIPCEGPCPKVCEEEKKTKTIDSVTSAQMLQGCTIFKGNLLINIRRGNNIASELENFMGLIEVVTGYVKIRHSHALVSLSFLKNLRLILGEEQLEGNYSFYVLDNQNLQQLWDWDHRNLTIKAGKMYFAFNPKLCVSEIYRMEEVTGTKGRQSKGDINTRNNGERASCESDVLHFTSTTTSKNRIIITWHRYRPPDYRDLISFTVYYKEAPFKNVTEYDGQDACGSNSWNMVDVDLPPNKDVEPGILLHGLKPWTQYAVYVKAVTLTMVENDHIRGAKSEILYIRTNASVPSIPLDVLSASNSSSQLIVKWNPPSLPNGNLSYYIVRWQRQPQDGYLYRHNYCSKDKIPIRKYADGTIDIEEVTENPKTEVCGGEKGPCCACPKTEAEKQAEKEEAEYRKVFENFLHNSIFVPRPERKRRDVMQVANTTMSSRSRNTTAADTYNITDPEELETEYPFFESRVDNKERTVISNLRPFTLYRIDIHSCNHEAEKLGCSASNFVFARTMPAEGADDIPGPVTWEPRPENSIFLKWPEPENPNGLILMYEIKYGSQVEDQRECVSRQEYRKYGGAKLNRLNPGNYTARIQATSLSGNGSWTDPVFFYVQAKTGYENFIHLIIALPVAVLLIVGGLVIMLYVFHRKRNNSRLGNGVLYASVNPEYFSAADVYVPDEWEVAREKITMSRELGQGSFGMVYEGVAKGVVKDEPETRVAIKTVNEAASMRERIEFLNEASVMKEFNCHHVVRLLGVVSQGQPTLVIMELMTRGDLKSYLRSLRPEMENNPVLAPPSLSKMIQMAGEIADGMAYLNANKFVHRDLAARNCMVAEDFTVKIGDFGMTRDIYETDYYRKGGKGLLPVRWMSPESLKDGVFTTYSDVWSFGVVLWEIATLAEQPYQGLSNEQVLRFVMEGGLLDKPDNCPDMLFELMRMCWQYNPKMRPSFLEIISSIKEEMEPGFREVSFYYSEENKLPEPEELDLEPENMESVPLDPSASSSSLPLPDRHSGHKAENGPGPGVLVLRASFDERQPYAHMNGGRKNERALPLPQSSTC

Zap-70 = target: T5, Zap-70 (Homo sapiens, UniProt P43403); assay: Kinase inhibition assay (33P transfer), Zap-70; conditions: Table 3, class symbols; read-out: Zap-1
T5 construct: Kinases are expressed as either kinase domains or full length constructs; made in house
T5 sequence (P43403 1-619): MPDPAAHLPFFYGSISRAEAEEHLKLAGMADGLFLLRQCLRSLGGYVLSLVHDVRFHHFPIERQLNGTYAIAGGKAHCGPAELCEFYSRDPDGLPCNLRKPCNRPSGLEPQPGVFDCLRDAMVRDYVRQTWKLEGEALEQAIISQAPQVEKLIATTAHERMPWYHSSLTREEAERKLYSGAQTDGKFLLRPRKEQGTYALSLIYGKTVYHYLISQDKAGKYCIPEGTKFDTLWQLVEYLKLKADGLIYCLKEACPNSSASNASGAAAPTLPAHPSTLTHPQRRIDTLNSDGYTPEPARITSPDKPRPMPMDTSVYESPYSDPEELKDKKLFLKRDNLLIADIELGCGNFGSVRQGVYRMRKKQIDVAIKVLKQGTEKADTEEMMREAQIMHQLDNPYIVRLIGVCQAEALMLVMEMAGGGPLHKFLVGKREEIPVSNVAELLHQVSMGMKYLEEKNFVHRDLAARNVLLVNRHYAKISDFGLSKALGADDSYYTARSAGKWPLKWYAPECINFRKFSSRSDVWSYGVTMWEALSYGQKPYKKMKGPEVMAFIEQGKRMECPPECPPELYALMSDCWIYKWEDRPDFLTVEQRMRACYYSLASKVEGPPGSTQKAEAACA
In short: as §1

c-Met = target: T6, c-Met (Homo sapiens, UniProt P08581); assay: Kinase inhibition assay (33P transfer), c-Met; conditions: Table 2, class symbols A-E; read-out: Met-1
T6 construct: Kinases are expressed as either kinase domains or full length constructs; made in house
In short: as §2

Itk = target: T7, Itk (Homo sapiens, UniProt Q08881); assay: Kinase inhibition assay (33P transfer), Itk; conditions: Table 3, class symbols; read-out: Itk-1
T7 construct: Kinases are expressed as either kinase domains or full length constructs; made in house
T7 sequence (Q08881 1-620): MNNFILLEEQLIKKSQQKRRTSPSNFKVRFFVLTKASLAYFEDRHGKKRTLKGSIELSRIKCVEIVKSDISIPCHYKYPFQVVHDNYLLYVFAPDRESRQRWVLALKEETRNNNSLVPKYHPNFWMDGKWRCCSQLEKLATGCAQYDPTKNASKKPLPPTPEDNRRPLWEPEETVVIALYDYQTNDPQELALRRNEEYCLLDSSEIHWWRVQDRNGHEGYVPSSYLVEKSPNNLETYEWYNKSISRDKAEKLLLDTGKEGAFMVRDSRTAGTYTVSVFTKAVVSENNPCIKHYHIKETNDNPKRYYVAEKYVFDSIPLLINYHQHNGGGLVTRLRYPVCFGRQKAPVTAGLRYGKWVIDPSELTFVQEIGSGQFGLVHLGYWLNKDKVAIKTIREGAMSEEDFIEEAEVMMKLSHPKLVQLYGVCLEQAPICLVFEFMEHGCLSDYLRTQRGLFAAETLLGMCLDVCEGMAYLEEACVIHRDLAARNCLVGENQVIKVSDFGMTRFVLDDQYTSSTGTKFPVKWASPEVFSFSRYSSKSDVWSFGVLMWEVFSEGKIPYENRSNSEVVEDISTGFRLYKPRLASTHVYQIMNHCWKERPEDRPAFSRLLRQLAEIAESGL
In short: as §2

PDGFRB = target: T8, PDGFRB (Homo sapiens, UniProt P09619); assay: Kinase inhibition assay (33P transfer), PDGFRB; conditions: read-out: PDGFRB-1
T8 construct: Kinases are expressed as either kinase domains or full length constructs; made in house
T8 sequence (P09619 33-1106, species assumed): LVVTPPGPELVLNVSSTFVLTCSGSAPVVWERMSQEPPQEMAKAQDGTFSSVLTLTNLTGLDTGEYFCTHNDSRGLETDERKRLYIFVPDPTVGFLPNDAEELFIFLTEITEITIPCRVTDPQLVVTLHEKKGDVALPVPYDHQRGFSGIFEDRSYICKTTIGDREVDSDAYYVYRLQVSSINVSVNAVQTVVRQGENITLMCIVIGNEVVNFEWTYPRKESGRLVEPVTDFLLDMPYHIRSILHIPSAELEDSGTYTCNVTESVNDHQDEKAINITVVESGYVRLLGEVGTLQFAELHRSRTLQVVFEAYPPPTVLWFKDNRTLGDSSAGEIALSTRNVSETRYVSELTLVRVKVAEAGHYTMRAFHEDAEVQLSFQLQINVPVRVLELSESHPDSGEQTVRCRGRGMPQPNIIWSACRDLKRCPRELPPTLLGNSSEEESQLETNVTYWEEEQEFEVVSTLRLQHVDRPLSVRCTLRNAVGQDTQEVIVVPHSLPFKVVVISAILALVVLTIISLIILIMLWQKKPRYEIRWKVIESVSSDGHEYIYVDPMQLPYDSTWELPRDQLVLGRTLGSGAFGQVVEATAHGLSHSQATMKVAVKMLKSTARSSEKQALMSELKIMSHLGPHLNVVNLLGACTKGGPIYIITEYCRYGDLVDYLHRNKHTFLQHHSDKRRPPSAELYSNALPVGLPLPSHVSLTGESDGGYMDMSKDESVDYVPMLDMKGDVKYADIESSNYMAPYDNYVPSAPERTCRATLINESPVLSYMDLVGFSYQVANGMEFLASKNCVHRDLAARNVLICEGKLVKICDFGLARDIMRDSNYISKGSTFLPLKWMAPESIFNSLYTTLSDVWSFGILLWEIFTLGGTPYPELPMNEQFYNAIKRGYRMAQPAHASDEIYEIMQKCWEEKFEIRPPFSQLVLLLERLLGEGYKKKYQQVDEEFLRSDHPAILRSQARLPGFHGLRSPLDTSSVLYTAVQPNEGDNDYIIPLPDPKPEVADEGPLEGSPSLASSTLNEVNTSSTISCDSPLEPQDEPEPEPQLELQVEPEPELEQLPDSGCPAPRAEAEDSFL

Kdr = target: T9, Kdr (Homo sapiens, UniProt P35968); assay: Kinase inhibition assay (33P transfer), Kdr; conditions: Table 3, class symbols; read-out: KDR-1
T9 construct: Kinases are expressed as either kinase domains or full length constructs; made in house
In short: as §1

AKT = target: T10, AKT (Homo sapiens, UniProt Q9Y243); assay: Kinase inhibition assay (33P transfer), AKT; conditions: Table 2, class symbols A-E; read-out: AKT3-1
T10 construct: Kinases are expressed as either kinase domains or full length constructs; made in house
In short: as §1

Compound | IC50 (Lck) | IC50 (EGFR) | IC50 (ErbB2) | IC50 (IGFR-1) | IC50 (Zap-70) | IC50 (c-Met) | IC50 (Itk) | IC50 (PDGFRB) | IC50 (Kdr) | IC50 (AKT)
COc1ccc(Nc2ncnc(N(C)C3CCN(Cc4ccccc4)C3)n2)cc1OC (centres unmarked) [Compound 802] | > 10.7 µM | > 10.7 µM | > 10.7 µM | > 10.7 µM | > 10.7 µM | > 10.7 µM | > 10.7 µM | 0.951 to 5.71 µM | > 10.7 µM | > 10.7 µM
c1ccc(CNc2nc3ccccc3n2-c2ncnc(Nc3cccc(Cn4ccnn4)c3)n2)cc1 [Compound 965] | 0.843 to 5.06 µM | < 0.843 µM | 0.843 to 5.06 µM | > 9.48 µM | > 9.48 µM | > 9.48 µM | 5.06 to 7.38 µM | < 0.843 µM | < 0.843 µM | > 9.48 µM
c1ccc(CNc2ncnc(Nc3cc(-c4ccco4)n[nH]3)n2)nc1 [Compound 995] | > 13.5 µM | 1.2 to 7.18 µM | > 13.5 µM | 7.18 to 10.5 µM | > 13.5 µM | > 13.5 µM | 10.5 to 13.5 µM | 1.2 to 7.18 µM | 7.18 to 10.5 µM | > 13.5 µM
Fc1ccc(Nc2ncnc(Nc3ccc4c(cnn4Cc4ccccc4)c3)n2)cc1F [Compound 902] | > 10.5 µM | < 0.931 µM | 0.931 to 5.59 µM | 5.59 to 8.15 µM | > 10.5 µM | 0.931 to 5.59 µM | > 10.5 µM | > 10.5 µM | > 10.5 µM | 0.931 to 5.59 µM
c1ccc(Cn2ncc3cc(Nc4ncnc(NCCN5CCCC5)n4)ccc32)cc1 [Compound 871] | > 10.9 µM | > 10.9 µM | > 10.9 µM | > 10.9 µM | > 10.9 µM | > 10.9 µM | 5.79 to 8.44 µM | 8.44 to 10.9 µM | > 10.9 µM | > 10.9 µM
COc1ccc(Nc2ncnc(N(C)c3ccc(F)cc3F)n2)cc1OC [Compound 801] | 1.07 to 6.43 µM | < 1.07 µM | 9.37 to 12.1 µM | > 12.1 µM | > 12.1 µM | 1.07 to 6.43 µM | > 12.1 µM | 1.07 to 6.43 µM | 6.43 to 9.37 µM | > 12.1 µM
CN(c1cccc(Br)c1)c1ncnc(Nc2cccc(Cc3nnn[nH]3)c2)n1 [Compound 670] | 0.913 to 5.48 µM | < 0.913 µM | < 0.913 µM | > 10.3 µM | > 10.3 µM | < 0.913 µM | > 10.3 µM | 0.913 to 5.48 µM | 0.913 to 5.48 µM | > 10.3 µM
c1ccc(CNc2ncccc2-c2ncnc(Nc3ccc(N4CCOCC4)cc3)n2)cc1 [Compound 1105] | > 10.2 µM | > 10.2 µM | > 10.2 µM | > 10.2 µM | > 10.2 µM | > 10.2 µM | > 10.2 µM | < 0.91 µM | < 0.91 µM | > 10.2 µM
OCc1cccc(Nc2ncnc(-c3cccnc3NCc3ccc(F)cc3)n2)c1 [Compound 1104] | > 11.2 µM and 0.994 to 5.96 µM | > 11.2 µM and 0.994 to 5.96 µM | > 11.2 µM and 0.994 to 5.96 µM | > 11.2 µM and 8.7 to 11.2 µM | > 11.2 µM | > 11.2 µM | > 11.2 µM and 8.7 to 11.2 µM | < 0.994 µM | < 0.994 µM | 8.7 to 11.2 µM and > 11.2 µM

Further lines, results first:

IC50 (Lck) | IC50 (EGFR) | IC50 (ErbB2) | IC50 (IGFR-1) | IC50 (Zap-70) | IC50 (c-Met) | IC50 (Itk) | IC50 (PDGFRB) | IC50 (Kdr) | IC50 (AKT) | Compound
1.04 to 6.24 µM | 1.04 to 6.24 µM | 9.1 to 11.7 µM | > 11.7 µM | 9.1 to 11.7 µM | > 11.7 µM | > 11.7 µM | < 1.04 µM | < 1.04 µM | 9.1 to 11.7 µM | OCc1cccc(Nc2ncnc(-c3cccnc3NCc3ccccc3)n2)c1 [Compound 1103]
> 10.5 µM | < 0.935 µM | 0.935 to 5.61 µM | > 10.5 µM | > 10.5 µM | 0.935 to 5.61 µM | > 10.5 µM | < 0.935 µM | 0.935 to 5.61 µM | > 10.5 µM | COc1cc(Nc2ncnc(N3CCCc4c(Cl)cccc43)n2)cc(OC)c1OC [Compound 643]
> 11 µM | 5.89 to 8.59 µM | > 11 µM | 8.59 to 11 µM | > 11 µM | 0.982 to 5.89 µM | 0.982 to 5.89 µM | 0.982 to 5.89 µM | > 11 µM | > 11 µM | COC(=O)c1ccc(-c2cc(Nc3ncnc(NCc4cccs4)n3)[nH]n2)cc1 [Compound 877]
0.768 to 4.61 µM | 0.768 to 4.61 µM | 0.768 to 4.61 µM | > 8.64 µM | > 8.64 µM | > 8.64 µM | > 8.64 µM | 4.61 to 6.72 µM | 6.72 to 8.64 µM | > 8.64 µM | COc1cc(Nc2ncnc(Nc3cc(Cl)c(NC(=O)c4ccccc4)cc3C)n2)cc(OC)c1OC [Compound 633]
1.04 to 6.21 µM | < 1.04 µM | < 1.04 µM | < 1.04 µM | 1.04 to 6.21 µM | < 1.04 µM | < 1.04 µM | < 1.04 µM | < 1.04 µM | < 1.04 µM | c1cc(Nc2ncnc(Nc3cc(-c4ccco4)[nH]n3)n2)cc(-c2cnco2)c1 [Compound 824]
> 10.5 µM | < 0.935 µM | < 0.935 µM | > 10.5 µM | > 10.5 µM | > 10.5 µM | > 10.5 µM | > 10.5 µM | > 10.5 µM | > 10.5 µM | COc1cc(Nc2ncnc(N3CCCc4ccc(Cl)cc43)n2)cc(OC)c1OC [Compound 645]
0.884 to 5.3 µM | 0.884 to 5.3 µM | 0.884 to 5.3 µM | 0.884 to 5.3 µM | 5.3 to 7.73 µM | 5.3 to 7.73 µM | < 0.884 µM | < 0.884 µM | < 0.884 µM | > 9.94 µM | Fc1ccc(CNc2ncccc2-c2ncnc(Nc3cccc(Cn4ccnc4)c3)n2)cc1 [Compound 1109]
> 9.43 µM | < 0.838 µM | 0.838 to 5.03 µM | > 9.43 µM | > 9.43 µM | 5.03 to 7.33 µM | > 9.43 µM | > 9.43 µM | > 9.43 µM | > 9.43 µM | FC(F)(F)Oc1cccc(Nc2ncnc(Nc3ccc4c(cnn4Cc4ccccc4)c3)n2)c1 [Compound 907]
1.14 to 6.83 µM | < 1.14 µM | 1.14 to 6.83 µM | 1.14 to 6.83 µM | > 12.8 µM | 1.14 to 6.83 µM | > 12.8 µM | 1.14 to 6.83 µM | 1.14 to 6.83 µM | > 12.8 µM | COc1ccc(Nc2ncnc(N(C)c3ccc(C)cc3)n2)cc1OC [Compound 799]
> 9.25 µM | < 0.822 µM | 0.822 to 4.93 µM | > 9.25 µM | > 9.25 µM | 7.2 to 9.25 µM | > 9.25 µM | > 9.25 µM | > 9.25 µM | > 9.25 µM | CN(c1ccc2c(cnn2Cc2ccccc2)c1)c1ncnc(Nc2cccc(Br)c2)n1 [Compound 667]
1.1 to 6.59 µM | > 12.3 µM | > 12.3 µM | > 12.3 µM | 6.59 to 9.6 µM | 6.59 to 9.6 µM | > 12.3 µM | < 1.1 µM | 1.1 to 6.59 µM | > 12.3 µM | CC(C)Nc1ncccc1-c1ncnc(Nc2cccc(CC(=O)O)c2)n1 [Compound 1097]

— patent US7074789B2, “Kinase inhibitors” (Amgen Inc., priority 1999, dated 2006)
